{"source": "patent US20240299698A1", "about": "“PREVENTION AND TREATMENT OF POST-OPERATIVE COGNITIVE DYSFUNCTION (POCD)” (Noetix Pharma LLC, priority 2022, published 2024)", "format_in_all_cases": "in vivo, Male C57BI/6 mice", "key": {"mouse model of (POCD) [1]": {"tested_on": "mouse model of (POCD)", "test": "Novel object recognition testing in laparotomy mouse model of POCD", "details": "for novel object preference, 24-hour (long term) testing: PSD6", "description": "(§1) To induce POCD, mice were anesthetized with isoflurane and maintained at a surgical plane of anesthesia (2-2.5%). The abdomen was shaved and cleaned/disinfected with both betadine and ethanol (70%). A 1.5 cm vertical incision was made along the midline of the abdomen, perforating the skin and the peritoneal cavity. A sterile blunt probe was inserted into the cavity, and the abdominal viscera and musculature were manipulated for five minutes. Abdominal muscles and skin were sutured, polysporin and topical lidocaine were applied to the incision site, and buprenorphine (0.1 mg/kg s.c.) was administered. Animals were placed into a clean, pre-warmed home cage for recovery and housed singly thereafter.\nNovel object recognition (NOR) is a tool used to assess the ability of mice to differentiate between familiar and novel objects (i.e., recognition memory). The paradigm relies on the tendency of rodents to interact more with a novel object than a familiar one. In this task, acclimation to the test arena was provided on the day prior to training (PSD4) and the initial test trial (short-term recall), presented one hour following training on PSD5. The second test trial (long-term recall) was performed 24 hours later (PSD6). Object recognition may be determined through evaluation of the percent time spent exploring a novel object relative to the total time spent exploring both novel and familiar objects; normal animals will spend more time exploring a novel object. If the exploration of both objects is the same, this behavior can be a sign of a recognition memory deficit.\n(§2) The acclimation process was as follows: 1. The animal was brought into the testing room in a transfer cage. 2. Video recording was begun and the animal's ID card was recorded. 3. The mouse was placed in the center of the arena and allowed to explore freely for 5 minutes. 4. The mouse was returned to its home cage.\nas §2, with “paired object training” for “acclimation”, “10” for “5”\n(§3) The novel object (1 hour) test was performed as follows: 1. The arena was prepared with one original object (block) and one novel object (ball) present. 2. The animal was brought into the testing room in a transfer cage. 3. Video recording was begun and the animal's ID card was recorded. 4. The mouse was placed in the center of the arena and allowed to explore for 10 minutes. 5. The mouse was returned to its home cage.\nas §3, with “(24” for “(1”, “(dome)” for “(ball)”"}, "mouse model of (POCD) [2]": {"tested_on": "mouse model of (POCD)", "test": "Behavioral test battery, summary of experimental results", "description": "The project included experiments performed to investigate the therapeutic effects of administration of pirfenidone in a mouse model of (POCD). The model was developed during pilot work completed earlier in the study and was induced by performing a laparotomy with a 5-minute manipulation of abdominal viscera and musculature. Weights and physical condition of the animals were closely monitored throughout the study, with presurgical and daily post-surgical gavage of pirfenidone or saline administered. Behavioral testing was performed to evaluate alterations in learning and memory processes using fear conditioning, novel object recognition, and water maze paradigms. Following euthanasia on the eighth day post-surgery, hippocampal tissue was preserved and later evaluated for morphological characteristics related to microglial cell activation.\nBehavioral testing was performed at various time points throughout the study as outlined in each separate section below and summarized in Table 2. All tests were recorded and analyzed by experimenters blinded to treatment. Data were obtained through a combination of experimenter scoring and use of AnyMaze™ Video Tracking System evaluation."}, "mouse model of (POCD) [3]": {"tested_on": "mouse model of (POCD)", "test": "Fear conditioning context testing in laparotomy mouse model of POCD", "description": "as §1\nFear conditioning is a commonly used test of associative learning where a […] stimulus is paired with an aversive unconditioned stimulus, resulting in a freezing response that can be subsequently quantified. Training occurred on the day prior to surgery, context testing on PSD1 (i.e., 2 days after training) and PSD3 (i.e., 4 days after training), and cued testing on PSD3 at a time point three hours after the final context test. For training and context testing, mice were placed in an operant chamber (Med Associates). For cued testing, mice were placed into a novel arena with novel external environment and scent.\nFear conditioning training was performed to generate an association between a neutral “conditional” stimulus (80 dB tone) with an aversive “unconditional” stimulus (0.4 mA shock). Before training, the system was tested to confirm proper operation of the shock and tone. During training, the testing environment was kept quiet and well controlled. Temperature and humidity levels were kept constant and the experimenter was not visible from the operant chamber, which was cleaned between animals. The training protocol was as follows: 1. Each mouse was habituated to the testing room for 20 minutes. 2. Video recording was initiated and the animal's ID card was recorded. 3. Each mouse was placed into the operant chamber and the training protocol was implemented as follows: a. 120 seconds; no stimuli (habituation to the chamber); b. 20 seconds, tone presentation (80 dB); c. 20 seconds, no stimuli (trace delay period); d. 2 seconds, foot shock (0.4 mA); e. 90 seconds, no stimuli (intertrial interval); f. repeat steps a-d followed by a final 30 second no stimuli period. 4. The mouse was returned to its home cage.\nThe purpose of context testing is to evaluate context memory for an aversive environment. Materials for this process included the operant testing chamber, a video recorder, a stopwatch, and data recording sheets. During the testing process the testing environment was kept quiet and well controlled with constant temperature and humidity levels. It was ensured that the experimenter was not visible from the operant chamber. The chamber was cleaned between animals.\nContext testing was performed as follows: 1. The mouse was habituated to the testing room for 15 minutes. 2. Video recording was initiated and the animal's ID card recorded. 3. The mouse was placed in the operation chamber and allow ed 270 seconds exploration time. 4. The mouse was returned to its home cage.\nFear conditioning context testing was performed on PSD1 and PSD3, with exposure to the contextual environment presented at the equivalent time of day to the training period in the same arena as was used for training. On PSD3, following the final contextual testing, the cued testing phase was performed. […]"}}, "data": [{"compound": "Cc1ccc(=O)n(-c2ccccc2)c1", "note": "[pirfenidone, 5-methyl-1-phenyl-2-(1H)-pyridone]", "values": [{"measurement": "preference index, within-group 1-hour vs 24-hour", "setting": "mouse model of (POCD) [1]; Acute, p=0.762, paired t-test (statistically equivalent)", "result": "retained memory for the familiar object"}, {"measurement": "preference index, within-group 1-hour vs 24-hour", "setting": "mouse model of (POCD) [1]; Chronic, p=0.828, paired t-test (statistically equivalent)", "result": "retained memory for the familiar object"}, {"measurement": "total object exploration time, 1 hour test compared with training", "setting": "mouse model of (POCD) [1]; PSD5, Acute, p=0.01, within group paired t-test", "result": "decrease in total time spent interacting with objects"}, {"measurement": "total object exploration time, 1 hour test compared with training", "setting": "mouse model of (POCD) [1]; PSD5, Chronic, p=0.04, within group paired t-test", "result": "decrease in total time spent interacting with objects"}, {"measurement": "novel object preference, 1-hour (short term) testing, between groups", "setting": "mouse model of (POCD) [1]; PSD5, all treatment groups, p=0.376, one-way ANOVA", "result": "no main effect for treatment"}, {"measurement": "novel object preference, 24-hour (long term) testing", "setting": "mouse model of (POCD) [1]; Acute vs Disease Controls, p=0.08, LSD post-hoc", "result": "trend toward increased preference"}, {"measurement": "novel object preference, 24-hour (long term) testing", "setting": "mouse model of (POCD) [1]; Chronic vs Disease Controls, p=0.09, LSD post-hoc", "result": "trend toward increased preference"}, {"measurement": "behavioral testing responses (summary)", "setting": "mouse model of (POCD) [2]; Acute pirfenidone treated animals", "result": "equivalent to or better than those seen in Normal Controls"}, {"measurement": "behavioral testing responses (summary)", "setting": "mouse model of (POCD) [2]; Chronic pirfenidone administration", "result": "beneficial effects, particularly for recognition memory"}, {"measurement": "behavioral changes associated with memory in postoperative cognitive dysfunction (summary)", "setting": "mouse model of (POCD) [2]; overall, pirfenidone treatment", "result": "protective effect"}, {"measurement": "time spent freezing, contextual test, within-group PSD3 compared to PSD1", "setting": "mouse model of (POCD) [3]; Acute (400 mg/kg p.o. single presurgical dose), p=0.009, paired t-test", "result": "less time freezing"}, {"measurement": "time spent freezing, contextual test, within-group PSD3 compared to PSD1", "setting": "mouse model of (POCD) [3]; Chronic (400 mg/kg initial; 200 mg/kg p.o. 1x/day), p=0.942, paired t-test", "result": "no difference between test presentation days"}, {"measurement": "time spent freezing, contextual test", "setting": "mouse model of (POCD) [3]; PSD1, Acute (400 mg/kg p.o. single presurgical dose) compared to Chronic pirfenidone animals, p=0.027, LSD post-hoc", "result": "increased freezing"}, {"measurement": "time spent freezing, contextual test", "setting": "mouse model of (POCD) [3]; PSD3, Acute (400 mg/kg p.o. single presurgical dose) vs Normal Controls", "result": "performed equivalently to Normal Controls"}, {"measurement": "time spent freezing, contextual test, between groups", "setting": "mouse model of (POCD) [3]; PSD3, Acute and Chronic groups and controls, p=0.671, One-way ANOVA", "result": "no statistical difference between groups"}]}]}
